Test results reported in patent publication US20250235545A1, “POLYPEPTIDE CONJUGATE AND USE THEREOF” (SHANGHAI CHIXI BIOMEDICAL TECHNOLOGY CO., LTD, priority 2024, published 2025).
Values after ≈ are worked out from the molar mass of the structure shown. Where two headings read alike, the source gives them in different places. Where a SMILES comes first, the peptide text is derived from it. The star is where a group is joined. X2 = CCCCN(CCc1c2c(nc3ccccc13)-c1cc3c(c(=O)n1C2)COC(=O)[C@]3(O)CC)*; X4 = CCCN(CCc1c2c(nc3ccccc13)-c1cc3c(c(=O)n1C2)COC(=O)[C@]3(O)CC)*; X5 = CC[C@@]1(O)C(=O)OCc2c1cc1n(c2=O)Cc2c-1nc1ccccc1c2CCN(CC(C)C)*; Propanoyl(3-maleimido) = O=C1C=CC(=O)N1CCC(=O)*; PEG6 = NCCOCCOCCOCCOCCOCCOCCC(=O)O

Assays:
[1] = Tumor homogenate activation efficiency, small cell lung cancer tissue (Example 28); type: in vitro ADME; conditions: pH 5.0, 37° C., 2 h; Table 5
Method in brief: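 Polypeptide conjugate at 1 mg/ml in 50 mM MES, 250 mM NaCl, pH 5.0 incubated with 100 μg small cell lung cancer tissue homogenate at 37° C. for 2 h. HPLC quantified Belotecan release as Belotecan peak area over total area of Belotecan plus all Belotecan-containing compounds.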

A2780 (ovarian cancer) = test: cells; type: cell-based; conditions: for IC50 Ovarian cancer tissue (A2780): CCK8, 48 h, Table 6
Method in brief: (§1)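 CCK8 absorbance at 450 nm, read after roughly 2 h of staining, gave cell survival rates from which IC50 values were derived. Beforehand, 5,000 cells/well were exposed for 48 h at 37° C to serial drug dilutions (triplicate wells; 0.1% DMSO vehicle control; cell-free blanks).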

SJSA-1 (sarcoma tissue) = test: cells; type: cell-based; conditions: for IC50 Sarcoma tissue (SJSA-1): CCK8, 48 h, Table 6
Method in brief: as §1

[2] = tested on: A549 (non-small cell lung cancer); test: cells; type: cell-based; conditions: for IC50 Non-small cell lung cancer tissue (A549): CCK8, 48 h, Table 6
Method in brief: as §1

[3] = tested on: SKBR3 (breast cancer tissue); test: cells; type: cell-based; conditions: for IC50 Breast cancer tissue (SKBR3): CCK8, 48 h, Table 6
Method in brief: as §1

[4] = MTD determination in mice (Examples 27, 36, 44); type: in vivo; conditions: female, mouse, in vivo, mice, monitored for 14 d; for MTD: read-out: MTD
Description: Test animals: 6-8 weeks old mice, all female; mice were grouped randomly, with six mice in each group, administered with drugs at different concentration gradients separately and monitored for 14 d. A mouse was euthanized at a loss of 20% of its initial weight and deemed to have died of poisoning.

| Compound | Percentage of release efficiency (%) Small cell lung cancer tissue (NCI-H841) [1] [%] | IC50 A2780 (ovarian cancer) (A2780 (ovarian cancer); 48 h) [µg/mL] | IC50 SJSA-1 (sarcoma tissue) (SJSA-1 (sarcoma tissue); 48 h) [µg/mL] | IC50 A549 (non-small cell lung cancer) ([2]; 48 h) [µg/mL] | IC50 SKBR3 (breast cancer tissue) ([3]; 48 h) [µg/mL] | MTD ([4]; Table 15 (Example 44), six per group) [mg/kg] | MTD ([4]; Table 4) [mg/kg] | IC50 Ovarian cancer tissue (A2780) (A2780 (ovarian cancer)) [µg/mL] | IC50 Sarcoma tissue (SJSA-1) (SJSA-1 (sarcoma tissue)) [µg/mL] | IC50 Non-small cell lung cancer tissue (A549) [2] [µg/mL] | IC50 Breast cancer tissue (SKBR3) [3] [µg/mL] | MTD at 14 d ([4]; Table 9) [mg/kg] |
| --- | --- | --- | --- | --- | --- | --- | --- | --- | --- | --- | --- | --- |
| CC[C@@]1(O)C(=O)OCC2=C1C=C1c3nc4ccccc4c(CCN(C(=O)OCc4ccc(NC(=O)[C@H](CC(N)=O)NC(=O)[C@H](C)NC(=O)[C@H](C)NC(=O)CCOCCOCCOCCOCCOCCOCCNC(=O)CCN5C(=O)C=CC5=O)cc4)C(C)C)c3CN1C2 [MI-6PEG-AAN-PAB-Belotecan] | 61.5 | 0.34 (≈ 0.259 µM) | 0.26 (≈ 0.198 µM) | 0.39 (≈ 0.297 µM) | 0.40 (≈ 0.305 µM) | 100 | 100 | – | – | – | – | – |
| CCCN(CCc1c2c(nc3ccccc13)-c1cc3c(c(=O)n1C2)COC(=O)[C@]3(O)CC)C(=O)[C@H](CC(C)C)NC(=O)[C@H](CC(N)=O)NC(=O)[C@H](C)NC(=O)[C@H](C)NC(=O)CCOCCOCCOCCOCCOCCOCCNC(=O)CCN1C(=O)C=CC1=O [MI-6PEG-AANL-D3] ({Propanoyl(3-maleimido)-PEG6}-AANL-X4) | – | – | – | – | – | – | – | 1.15 (≈ 0.892 µM) | 1.52 (≈ 1.18 µM) | 1.87 (≈ 1.45 µM) | 2.56 (≈ 1.99 µM) | 200 |
| CCCCN(CCc1c2c(nc3ccccc13)-c1cc3c(c(=O)n1C2)COC(=O)[C@]3(O)CC)C(=O)[C@H](CC(C)C)NC(=O)[C@H](CC(N)=O)NC(=O)[C@H](C)NC(=O)[C@H](C)NC(=O)CCOCCOCCOCCOCCOCCOCCNC(=O)CCN1C(=O)C=CC1=O [MI-6PEG-AANL-D4] ({Propanoyl(3-maleimido)-PEG6}-AANL-X2) | – | – | – | – | – | – | – | 2.47 (≈ 1.89 µM) | 2.94 (≈ 2.26 µM) | 3.72 (≈ 2.85 µM) | 3.94 (≈ 3.02 µM) | – |
| CC[C@@]1(O)C(=O)OCc2c1cc1n(c2=O)Cc2c-1nc1ccccc1c2CCN(CC(C)C)C(=O)[C@H](CC(C)C)NC(=O)[C@H](CC(N)=O)NC(=O)[C@H](C)NC(=O)[C@H](C)NC(=O)CCOCCOCCOCCOCCOCCOCCNC(=O)CCN1C(=O)C=CC1=O [MI-6PEG-AANL-D5] ({Propanoyl(3-maleimido)-PEG6}-AANL-X5) | – | – | – | – | – | – | – | 1.13 (≈ 0.867 µM) | 1.58 (≈ 1.21 µM) | 1.34 (≈ 1.03 µM) | 2.20 (≈ 1.69 µM) | – |
